Test results: patent US11938153B2, “Methods of treating T cell exhaustion by inhibiting or modulating T cell receptor signaling” (THE BOARD OF TRUSTEES OF THE LELAND STANFORD JUNIOR …, priority 2017, dated 2024)
Values belong to the molecule of their own block, whether it stands above or below them.

What was measured:
GD2.28z.FKBP CAR = biological target: T1, GD2.28z.FKBP CAR (Homo sapiens, UniProt P62942, E32G/F37V/K106E/R72G); assay: Regulation of GD2.28z.FKBP CAR surface expression by shield-1 (FACS); format: cell-based; settings: adding or subtracting S1 in culture medium
T1 construct: expressed in transfected cells; host or cells: T cells, lentiviral transduction
Excerpt: FIG. 1: Characterization of the GD2.28z.FKBP CAR. T cells were transduced with lentivirus encoding the GD2.28z.FKBP CAR on day 1 after activation and subsequently cultured with various concentrations of shield-1 in the growth medium. On day 7, CAR expression was quantified via FACS.

Her2.28z.FKBP = biological target: T2, Her2.28z.FKBP (Homo sapiens, UniProt P62942, E32G/F37V/K106E/R72G); assay: Regulation of Her2.28z.FKBP CAR expression by shield-1 (protein L stain, FACS); format: cell-based; settings: 0.1 uM or 1 uM, 24 hours after addition of drug
T2 construct: expressed in transfected cells; host or cells: T cells, lentiviral transduction
Protocol: The FKBP12 DD domain was fused to the far c-terminus of the Her2.28z CAR. T cells were transduced with lentivirus to express the Her2.28z.FKBP. […] 24 hours after addition of drug, CAR T cells were stained with protein L and CAR expression was assessed via FACS. Both the percentage of CAR+ cells (quantified in the histograms) as well as CAR MFI are increased upon incubation with either 0.1 uM or 1 uM Shield-1 (S1).

GD2.28z.FKBP CAR T cells [1] = assay: Exhaustion phenotype of GD2.28z.FKBP CAR T cells after S1 removal (FACS); format: cell-based, human
Excerpt: Since tonic signaling is highly dependent upon GD2-CAR receptor levels, precise control of CAR expression levels also precisely regulates levels of tonic signaling. Drug regulated control of levels of CAR expression therefore also allowed modulation of the duration and intensity of GD2.28z tonic signaling. […] This is most well illustrated by measuring levels of PD-1/TIM-3/LAG-3 triple expressing cell which is highly specific for dysfunctional, exhausted T cells. […] Similar results were obtained on day 14 for cells in which S1 was removed from culture medium on day 7 or day 10 (not shown).

GD2.28z.FKBP CAR T cells [2] = assay: IL-2 secretion of GD2.28z.FKBP CAR T cells in co-culture with Nalm6 cells expressing GD2 (ELISA); format: cell-based, human
Protocol: Because phenotypic markers may not be entirely predictive of T cell function, we also performed functional experiments on CAR T cells provided transient drug exposure in culture. CAR T cells were washed, resuspended in media containing S1, and mixed at a 1:1 ratio with Nalm6 leukemic cells stably expressing surface GD2. Culture supernatants were harvested approximately 24 hours later and cytokine levels were evaluated via ELISA.
Similar to GD2.28z CAR that lacks a destabilization domain and therefore have persistent high levels of CAR signaling, cells expressing the GD2.28z.FKBP CAR that experienced continuous drug treatment (FIG. 4, grey bars) secreted minimal amounts of IL-2 on both day 10 and day 14 post-activation, consistent with T cell exhaustion.

[3] = test system: HA-GD2.28z.FKBP CAR T cells; assay: Sorted PD-1/TIM-3/LAG-3 triple positive HA-GD2.28z.FKBP CAR T cells re-cultured with or without S1 (FACS, co-culture); format: cell-based, human
Excerpt: Functional studies by several groups, including our lab have verified that co-expression of PD-1, TIM-3, and LAG-3 (triple positive, TP) denotes an exhausted cell subset that is highly dysfunctional. We thus sought to analyze whether cessation of tonic signaling in this cell subset could reverse their phenotype and restore their ability to secrete IL-2 in response to tumor antigen. […] On day 10 post-activation, HA-GD2.28z.FKBP CAR T cells that had experienced continuous S1 treatment were sorted in order to isolate a pure PD-1/TIM-3/LAG-3 exhausted population. “Triple positive” exhausted cells were then re-cultured either with or without S1 to test whether removal of tonic signaling could restore their function. FACS and co-culture assays were conducted 4 days later.

[4] = test system: HA-GD2.28z.FKBP CAR T cells; assay: Western blot of CAR CD3-zeta phosphorylation (tonic signaling); format: cell-based, human; settings: cultured in the absence of S1 (CAR Always OFF)
Excerpt: This phenotype was also reversible, as indicated by the lack of CD3-zeta phosphorylation in DD-CAR T cells that were initially cultured with S1, but then had drug removed on day 7 of the culture (FIG. 16, CAR OFF D7).

HA-GD2.28z.FKBP = assay: Exhaustion marker co-expression on HA-GD2.28z.FKBP CAR T cells; format: cell-based, human; settings: upon removal of shield-1 from the culture medium
Protocol: When assessing IL-2 and IFNγ, cells were surface stained, then fixed and permeablized (eBioscience) prior to incubation with intracellular antibodies.
T cells were removed from culture, fixed in 2% PFA for 10 minutes at room temperature, pelleted and frozen at −80C. Upon thawing, each sample was barcoded with a 20-plex Pd harcoding kit (FIuidigm). Cell samples were then pooled and stained for surface marker expression with heavy-metal conjugated antibodies for 30 minutes at room temperature. Cells were then permeablized in methanol and subsequently stained with heavy metal-conjugated anti-human T-bet (4B10, Biolegend) and anti-human Blimp-1 (ROS195G, Biolegend) for 30 minutes at room temperature. Samples were run on a Helios mass cytometer (Fluidigm) and analyses were complete using Cytobank online software.
It was next determined whether the prevention or reversal of tonic signaling in HA-GD2.28z.FKBP-expressing CAR T cells altered their exhaustion phenotype.

NALM6-GL-GD2 = settings: mice that received TMP
Protocol: At day 7 post-engraftment, 1-5×10^6 GD2.28z.DHFR or HA-GD2.28z.DHFR CAR+ T cells were infused intravenously.
Mice were then injected with either stabilizing drug or vehicle control every day thereafter.
To test this, antigen-bearing tumor cells were engrafted into NSG mice and subsequently infused 2-5E6 HA-GD2.28z.DHFR-expressing T cells. Mice were dosed with TMP everyday thereafter.

[5] = S1 removed day 7 or 10, read day 14, vs continuous S1

T2 sequence (P62942 2-108 E32G/F37V/R72G/K106E): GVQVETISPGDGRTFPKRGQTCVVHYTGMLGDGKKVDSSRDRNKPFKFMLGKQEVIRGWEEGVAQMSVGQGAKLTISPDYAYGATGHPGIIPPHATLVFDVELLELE
T1 sequence (P62942 2-108 E32G/F37V/R72G/K106E): as above

- regulation of CAR surface expression (GD2.28z.FKBP CAR): rapidly and dose-dependently regulated
- CAR MFI (Her2.28z.FKBP): increased
- percentage of CAR+ cells (Her2.28z.FKBP): increased
Molecule: CC[C@H](C(=O)N1CCCC[C@H]1C(=O)O[C@H](CCc1ccc(OC)c(OC)c1)c1cccc(OCCN2CCOCC2)c1)c1cc(OC)c(OC)c(OC)c1 [shield-1]
- apoptosis (annexin V staining) (GD2.28z.FKBP CAR T cells [1]; [5]): prevention of apoptosis
- memory markers (CD62L) (GD2.28z.FKBP CAR T cells [1]; [5]): maintenance of memory markers
- canonical exhaustion marker expression (GD2.28z.FKBP CAR T cells [1]; S1 removed day 7 post-activation, read day 10): reverses canonical exhaustion marker expression to control levels
- IL-2 secretion (GD2.28z.FKBP CAR T cells [2]; S1 removed day 7, vs continuous S1): superior IL-2 secretion
- IL-2 secretion of exhausted T cells after rest (GD2.28z.FKBP CAR T cells [2]; S1 removed day 10, rested 4 days, day 14 ELISA): reinvigorated
- augmentation of IL-2 secretion (GD2.28z.FKBP CAR T cells [2]; cultured without S1, S1 added back just prior to co-culture, vs continuous S1): 5-10 fold
- expression of exhaustion markers ([3]; 4 days without S1, CD4+ and CD8+ CAR T cells): far less expression of exhaustion markers
- increase in IL-2 secretion ([3]; removal of S1 vs continuous S1 days 10-14): 2 fold
- CD3-zeta phosphorylation [4]: absent
- co-expression of canonical exhaustion markers (HA-GD2.28z.FKBP): rapidly downregulated

Molecule: COc1cc(Cc2cnc(N)nc2N)cc(OC)c1OC [trimethoprim]
- CD69 surface expression of CAR T cells (NALM6-GL-GD2): higher CD69 surface expression

Molecule: nivolumab: anti-PD-1 checkpoint inhibitor
- IL-2 secretion (GD2.28z.FKBP CAR T cells [2]; continuous S1 + nivolumab, day 10, sustained until day 14): only modest augmentation of IL-2 secretion
